Experimental data as given in ChEMBL document CHEMBL1201862, “PubChem BioAssay data set” (2004).
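Results reflect a 48-hour exposure of cells in 96-well plates to compound at five concentrations. Abbreviation: GI50, concentration required for 50% inhibition of growth.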 Active and inactive are the calls of the source. Rule as the data show it: active = GI50 up to about 1.1 µM and inactive = higher.

Columns and labels:
Test in all cases: NCI anticancer screen, dose series, 48 h
786-0 = system: 786-0
A498 = system: A498
CAKI-1 = system: CAKI-1
DMS-114 = system: DMS-114
HCC 2998 = system: HCC 2998
HL-60 = system: HL-60
KM12 = system: KM12
MOLT-4 = system: MOLT-4
Malme-3M = system: Malme-3M
NCI-H226 = system: NCI-H226
NCI-H460 = system: NCI-H460
RXF 393 = system: RXF 393
SF-268 = system: SF-268
SK-MEL-28 = system: SK-MEL-28
SK-MEL-5 = system: SK-MEL-5
SK-OV-3 = system: SK-OV-3
SN12C = system: SN12C
HCT-15 = system: HCT-15
PC-3 = system: PC-3
T47D = system: T47D

Row | SMILES | GI50 (786-0) | GI50 (A498) | GI50 (CAKI-1) | GI50 (DMS-114) | GI50 (HCC 2998) | GI50 (HL-60) | GI50 (KM12) | GI50 (MOLT-4) | GI50 (Malme-3M) | GI50 (NCI-H226) | GI50 (NCI-H460) | GI50 (RXF 393) | GI50 (SF-268) | GI50 (SK-MEL-28) | GI50 (SK-MEL-5) | GI50 (SK-OV-3) | GI50 (SN12C) | GI50 (HCT-15) | GI50 (PC-3) | GI50 (T47D)
1 | CC1=C(/C=C/C(C)=C/C2CC(N(C)C)=CC(=O)O2)C(C)(C)CCC1 (stereo not given) | 15.4 µM (inactive) | 14.9 µM (inactive) | 22.2 µM (inactive) | 10.8 µM (inactive) | 13.6 µM (inactive) | 1.44 µM (inactive) | 15.6 µM (inactive) | 3.2 µM (inactive) | 14.4 µM (inactive) | 11.9 µM (inactive) | 17.7 µM (inactive) | 14.9 µM (inactive) | 21 µM (inactive) | 16.2 µM (inactive) | 5.45 µM (inactive) | 16.4 µM (inactive) | 15.5 µM (inactive) |  |  | 
2 | COc1ccc(C(O)c2cc(OC)c(OC)c(OC)c2)cc1 (stereo not given) | 46.8 µM (inactive) | 25.9 µM (inactive) | 37.1 µM (inactive) | 6.84 µM (inactive) |  | 6.11 µM (inactive) | 7.52 µM (inactive) | 16.9 µM (inactive) | 23.7 µM (inactive) | 32.4 µM (inactive) | 31.6 µM (inactive) | 10.1 µM (inactive) | 39 µM (inactive) | 72.1 µM (inactive) | 17 µM (inactive) |  | 42.8 µM (inactive) | 8.77 µM |  | 
3 | CC1=C(C(=O)Nc2ccccc2)C(c2ccc(C3C(C(=O)Nc4ccccc4)=C(C)NC(C)=C3C(=O)Nc3ccccc3)cc2)C(C(=O)Nc2ccccc2)=C(C)N1 | 2.54 µM (inactive) | 8.99 µM (inactive) | 4.02 µM (inactive) | 3.83 µM (inactive) | 2.47 µM (inactive) | 2.43 µM (inactive) | 2.09 µM (inactive) | 1.96 µM (inactive) | 1.89 µM (inactive) | 3.96 µM (inactive) | 2.67 µM (inactive) | 1.91 µM (inactive) | 2.2 µM (inactive) | 1.79 µM (inactive) | 2.26 µM (inactive) | 13.1 µM (inactive) | 2.04 µM (inactive) | 2.72 µM | 3.23 µM (inactive) | 2.7 µM (inactive)
4 | c1cc(C2O[C@H]3CCCN3[C@@H]2c2ccncc2)ccn1 (stereo not given in full) | > 100 µM (inactive) | > 100 µM (inactive) | > 100 µM (inactive) | > 100 µM (inactive) |  |  | > 100 µM (inactive) | > 100 µM (inactive) | > 100 µM (inactive) | > 100 µM (inactive) | > 100 µM (inactive) | > 100 µM (inactive) | > 100 µM (inactive) | > 100 µM (inactive) | > 100 µM (inactive) | > 100 µM (inactive) | > 100 µM (inactive) | > 100 µM |  | 
5 | COc1cc(/C=C(\C#N)C(N)=C(C#N)C#N)cc(O)c1O | > 100 µM (inactive) | > 100 µM (inactive) | > 100 µM (inactive) | 47 µM (inactive) | > 100 µM (inactive) | 26.9 µM (inactive) | > 84.3 µM (inactive) | 55.2 µM (inactive) | > 100 µM (inactive) | > 63.5 µM (inactive) | > 89.1 µM (inactive) | > 100 µM (inactive) | > 87.9 µM (inactive) | > 100 µM (inactive) | > 100 µM (inactive) | > 100 µM (inactive) | > 36 µM (inactive) | > 68.5 µM | > 100 µM (inactive) | 91.8 µM (inactive)
6 | CNC(=S)/N=C(\N)N(C)C | > 100 µM (inactive) | > 100 µM (inactive) | > 100 µM (inactive) | > 100 µM (inactive) | > 100 µM (inactive) | > 100 µM (inactive) | > 100 µM (inactive) | > 100 µM (inactive) | > 100 µM (inactive) | > 100 µM (inactive) | > 100 µM (inactive) | > 100 µM (inactive) | > 100 µM (inactive) | > 100 µM (inactive) | > 100 µM (inactive) | > 100 µM (inactive) | > 100 µM (inactive) | > 100 µM |  | 
7 | Oc1c(-c2ccccc2)nc2ccccn12 | > 100 µM (inactive) | > 100 µM (inactive) | > 100 µM (inactive) | > 100 µM (inactive) | > 100 µM (inactive) | > 100 µM (inactive) | > 100 µM (inactive) | > 100 µM (inactive) | > 100 µM (inactive) | > 100 µM (inactive) | > 100 µM (inactive) | > 100 µM (inactive) | > 100 µM (inactive) | > 100 µM (inactive) | > 100 µM (inactive) | > 100 µM (inactive) | > 100 µM (inactive) |  |  | 
8 | Nc1nccc2c1ncn2C1C=C(CO)C(O)C1O (stereo not given) | 60.1 µM (inactive) | > 100 µM (inactive) | 21.1 µM (inactive) | 13.9 µM (inactive) | 48.2 µM (inactive) | 1.82 µM (inactive) | 1.6 µM (inactive) | 2.55 µM (inactive) | 43.6 µM (inactive) | 49.1 µM (inactive) | 1.41 µM (inactive) | 87.9 µM (inactive) | > 96.4 µM (inactive) | 2.73 µM (inactive) | 356 µM (inactive) | > 100 µM (inactive) | 74.3 µM (inactive) | 13.2 µM | > 100 µM (inactive) | > 100 µM (inactive)
9 | CCOC(=O)N(c1ccccc1)N(CC)C(=O)/C(C)=N/Nc1ccc([N+](=O)[O-])cc1 | 17.1 µM (inactive) | 14.3 µM (inactive) |  | 17.9 µM (inactive) | 18 µM (inactive) | 11 µM (inactive) | 15.4 µM (inactive) | 17.7 µM (inactive) | 17.6 µM (inactive) | 22 µM (inactive) |  | 13 µM (inactive) | 17.2 µM (inactive) | 17.3 µM (inactive) |  | 19.8 µM (inactive) | 17.3 µM (inactive) | 16 µM |  | 
10 | C/C=C/C[C@@H](C)[C@@H](O)[C@H]1C(=O)N[C@@H](CC)C(=O)N(C)CC(=O)N(C)[C@@H](CC(C)C)C(=O)N[C@@H](C(C)C)C(=O)N(C)[C@@H](CC(C)C)C(=O)N[C@@H](C)C(=O)N[C@H](C)C(=O)N(C)[C@@H](CC(C)C)C(=O)N(C)[C@@H](CC(C)C)C(=O)N(C)[C@@H](C(C)C)C(=O)N1C [CYCLOSPORINE] | 12.8 µM (inactive) | 4.95 µM (inactive) | 6.98 µM (inactive) | 3.7 µM (inactive) | 2.15 µM (inactive) | 2.25 µM (inactive) | 5.94 µM (inactive) | 2.98 µM (inactive) | 7.45 µM (inactive) | 4.39 µM (inactive) | 3.87 µM (inactive) | 7.45 µM (inactive) | 7.26 µM (inactive) | 5.68 µM (inactive) | 3.78 µM (inactive) |  | 3.95 µM (inactive) | 4.48 µM |  | 
11 | C/C(=N\NC(N)=S)c1ccc(/C(C)=N/NC(N)=S)cc1 | > 100 µM (inactive) | > 100 µM (inactive) |  | > 100 µM (inactive) | > 100 µM (inactive) | > 100 µM (inactive) | > 100 µM (inactive) | > 100 µM (inactive) | > 100 µM (inactive) | > 100 µM (inactive) | > 100 µM (inactive) | > 100 µM (inactive) | > 100 µM (inactive) | > 100 µM (inactive) | > 100 µM (inactive) | > 100 µM (inactive) | > 100 µM (inactive) | > 100 µM |  | 
12 | COC(=O)C(CCC1(C)OCCO1)=[N+]=[N-] | > 100 µM (inactive) | > 100 µM (inactive) |  | > 100 µM (inactive) | > 100 µM (inactive) | > 100 µM (inactive) | > 100 µM (inactive) | > 100 µM (inactive) | > 100 µM (inactive) | > 100 µM (inactive) | > 100 µM (inactive) | > 100 µM (inactive) | > 100 µM (inactive) | > 100 µM (inactive) | > 100 µM (inactive) | > 100 µM (inactive) | > 100 µM (inactive) | > 100 µM |  | 
13 | Nc1nc(-c2ccc(Cl)c([N+](=O)[O-])c2)cs1 | 59.4 µM (inactive) | 20 µM (inactive) | 80 µM (inactive) | 64.7 µM (inactive) | > 100 µM (inactive) | > 100 µM (inactive) | 71 µM (inactive) | 97.3 µM (inactive) | > 100 µM (inactive) |  | > 100 µM (inactive) | 29.3 µM (inactive) | 86.5 µM (inactive) |  | > 100 µM (inactive) | > 100 µM (inactive) | > 100 µM (inactive) | > 100 µM |  | 
14 | CCCCCCCCCCCCOC(=S)NCCCC | 24.6 µM (inactive) | 20 µM (inactive) |  | 19.7 µM (inactive) | 18 µM (inactive) | 18.5 µM (inactive) | 20 µM (inactive) | 15.9 µM (inactive) | 26.6 µM (inactive) | 20.1 µM (inactive) | 24.4 µM (inactive) | 23.8 µM (inactive) | 26.8 µM (inactive) | 38 µM (inactive) |  | 18.7 µM (inactive) | 19.9 µM (inactive) | 19.5 µM |  | 
15 | O=C1O[C@@H](c2ccc3c(c2)OCO3)C2C(=O)O[C@@H](c3ccc4c(c3)OCO4)C12 (stereo not given in full) | > 100 µM (inactive) | > 100 µM (inactive) |  | > 100 µM (inactive) | > 100 µM (inactive) | > 100 µM (inactive) | > 100 µM (inactive) | > 100 µM (inactive) |  | > 100 µM (inactive) | > 100 µM (inactive) | > 100 µM (inactive) | > 100 µM (inactive) | > 100 µM (inactive) | > 100 µM (inactive) | > 100 µM (inactive) | > 100 µM (inactive) | > 100 µM |  | 
16 | CN(N=O)C(=O)NC(CCCCNC(=O)OCc1ccccc1)C(=O)OCc1ccccc1 (stereo not given) | 17.5 µM (inactive) | 55.5 µM (inactive) | 21.4 µM (inactive) | 29 µM (inactive) | 23.4 µM (inactive) | 25.2 µM (inactive) | 48.2 µM (inactive) | 26.6 µM (inactive) | 30.5 µM (inactive) | 42.9 µM (inactive) | 43.9 µM (inactive) | 33.7 µM (inactive) |  | 25 µM (inactive) | 20.4 µM (inactive) | > 100 µM (inactive) | 17.6 µM (inactive) | 36 µM |  | 
